Target: T1, PBAL (pantoate β-alanine ligase; Pan synthetase) (Toxoplasma gondii, UniProt S8EZ77)
T1 construct: gene TGME49_265870; native full-length enzyme in live tachyzoites, untagged; about 88 kDa; nuclear; compared with pbal-ko
Assay: LC-MS isotope labelling of pantothenate in live parasites, RH versus pbal-ko
Assay type: cell-based
Conditions: 0.8 mM pantoate with 0.8 mM 13C3/15N-beta-alanine, medium without Pan, 40 h, intact parasites in HFF

T1 sequence (S8EZ77 entry or part of it): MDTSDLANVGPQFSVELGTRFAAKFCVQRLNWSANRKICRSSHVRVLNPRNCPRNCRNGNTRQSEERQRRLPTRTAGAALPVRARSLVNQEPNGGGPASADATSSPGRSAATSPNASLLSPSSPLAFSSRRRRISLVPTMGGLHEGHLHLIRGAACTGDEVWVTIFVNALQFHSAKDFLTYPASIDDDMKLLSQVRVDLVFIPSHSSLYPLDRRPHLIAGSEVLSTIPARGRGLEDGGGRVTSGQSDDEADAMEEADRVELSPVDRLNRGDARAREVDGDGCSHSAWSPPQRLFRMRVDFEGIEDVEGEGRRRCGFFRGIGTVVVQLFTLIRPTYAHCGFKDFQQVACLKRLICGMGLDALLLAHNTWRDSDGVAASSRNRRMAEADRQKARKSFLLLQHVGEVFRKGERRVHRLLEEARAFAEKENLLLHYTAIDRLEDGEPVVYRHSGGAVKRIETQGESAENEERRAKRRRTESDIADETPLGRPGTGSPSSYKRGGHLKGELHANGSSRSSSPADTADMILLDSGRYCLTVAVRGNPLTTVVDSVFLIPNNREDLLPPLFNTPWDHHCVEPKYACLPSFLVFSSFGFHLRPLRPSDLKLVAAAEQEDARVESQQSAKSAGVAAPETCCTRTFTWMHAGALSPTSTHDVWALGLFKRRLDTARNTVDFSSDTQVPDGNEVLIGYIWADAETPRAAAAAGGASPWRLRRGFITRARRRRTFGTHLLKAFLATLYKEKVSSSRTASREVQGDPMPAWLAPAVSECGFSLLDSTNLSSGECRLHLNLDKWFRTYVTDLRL

SMILES | LC-MS isotope labelling of pantothenate in live parasites, RH versus pbal-ko (labelled compound) | LC-MS isotope labelling of pantothenate in live parasites, RH versus pbal-ko
NCCC(=O)O [13C3/15N-β-Ala] | led to the formation of labeled Pan in all strains except pbal-ko | 
CC(C)(CO)[C@@H](O)C(=O)O [pantoate] |  | led to the formation of labeled Pan in all strains except pbal-ko
